Results as given in patent publication US20250042909A1, “POLYMORPH FORMS OF A 5H-PYRROLO[2,3-b]PYRAZINE DERIVATIVE, METHODS OF PREPARATION, AND USES THEREFORE” (BeiGene, Ltd., priority 2022, published 2025).
Structures can show the parent of a compound that is named as a salt.

Assays:
[1] = Pharmacokinetic studies in mice; assay type: in vivo, male CD-1 mice; settings: for AUC(0-t): male, CD-1, mouse, plasma, read-out: AUC0-24h
Description: Compound A free form amorphous (115.7 mg) was prepared by lyophilizing a suspension of compound A free form in water with a minimum amount of acetonitrile.
(§1) Pharmacokinetic studies of Compound A were conducted in male CD-1 mice (Vital River, 8 weeks, 3 animals per dosing route) following Institutional Animal Care and Use Committee guidelines. Intravenous administration was formulated as 0.20 mg/mL solution in N,N-dimethylacetamide:30% solutol HS-15(w/v): saline=20:20:60 (V:V:V). Oral administration was formulated as 1.0 mg/mL suspension in 0.500 methyl cellulose. Blood samples were collected over a 24-h period post-dose. Plasma was isolated and processed with the below protocol: To an aliquot of 10 μL plasma was added 200 μL ACN containing 5 ng/mL terfenadine as internal standard. The mixture was vortexed for 1 m and centrifuged at 4000 rpm for 10 min. An aliquot of 50 μL supernatant was diluted with 150 μL acetonitrile/water. The concentration of Compound A was determined by LC-MS-MS. Non-compartmental pharmacokinetic analysis was performed on the concentration-time data.

[2] = Pharmacokinetic studies in rats; assay type: in vivo, male SD rats; settings: for AUC(0-t): read-out: AUC0-24h
Description: as §1, with “male SD rats” for “male CD-1 mice”, “as 1.0” for “as 0.20”, “solutol HS-15(w/v):saline=20:20:60” for “solutol HS-15(w/v): saline=20:20:60”, “in 0.5%” for “in 0.500”, “1 min” for “1 m”

[3] = Solid-state chemical and physical stability under stress and storage conditions; assay type: physicochemical; settings: for Chemical and physical stability: 25° C./92% RH open, 40° C./75% RH open, 60° C. tight container, over 1 week
Description: Solid form stability of freeform Type A was investigated in process solvents EtOH/H2O and MeOH/H2O. […] Purity change in all the rest conditions (40° C./75% RH/open for 2 weeks, 60° C./sealed for 10 days, RT/92.5% RH/open for 10 days, 25° C./60% RH/open for 8 weeks and UV (290 wμ/cm2) for 3 days) was less than 0.4 area %. […]

[4] = Solid form stability in process solvents; assay type: physicochemical; settings: MeOH at 50° C.
Description: Solid form stability of freeform Type A was investigated in process solvents EtOH/H2O and MeOH/H2O. […] Purity change in all the rest conditions (40° C./75% RH/open for 2 weeks, 60° C./sealed for 10 days, RT/92.5% RH/open for 10 days, 25° C./60% RH/open for 8 weeks and UV (290 wμ/cm2) for 3 days) was less than 0.4 area %.

[5] = Dynamic vapor sorption (DVS) hygroscopicity test; assay type: physicochemical; settings: for Hygroscopicity: DVS at 25° C.
Description: Dynamic vapor sorption (DVS) analysis was conducted using SMS DVS Intrinsic using one of below methods:
(§2) Sample was weighted to the microbalance. The relative humidity was set to 0% with N2 flow of 200 sccm. The equilibrium was assumed when the weight change of the sample was <0.001 wt % in 10 min or by a maximum equilibration time of 180 minutes. […] Between two equilibrium steps, dm/dt is 0.002%/min. At each equilibrium step, the equilibrium was assumed when the weight change of the sample was <0.001 wt % in 10 min or by a maximum equilibration time of 180 minutes.
as §2, with “the closes decile of ambient humidity” for “0%”
as §2, with “40%” for “0%”, “60” for “10”, “360” for “180”

[6] = PO Dose 10 mpk calculated as free form, 10 mg/kg
[7] = male, SD, rat, plasma, po, 10 mg/kg, PO Dose 10 mpk calculated as free form

## Cc1cc(-c2c[nH]c3ncc(-c4cc(C)c5c(c4)CCN(C)C5)nc23)ccc1C(=O)N(C)C [Compound A free form amorphous, 4-[2-(2,8-dimethyl-1,2,3,4-tetrahydroisoquinolin-6-yl)-5H-pyrrolo[2,3-b]pyrazin-7-yl]-N,N,2-trimethylbenzamide]
[1]; [6]
  Cmax: 177 ng/mL
  F %: 55.2%
  t1/2: 3.63 h
  tmax: 3.50 h
[1]; iv, 1 mg/kg, IV Dose 1 mpk calculated as free form
  AUC(0-t): 344 ng·h/mL
[1]; po, 10 mg/kg, PO Dose 10 mpk calculated as free form
  AUC(0-t): 1900 ng·h/mL
[2]; male, SD, rat, plasma, 10 mg/kg, PO Dose 10 mpk calculated as free form
  half-life: 4.05 h
[2]; male, SD, rat, plasma, iv, 1 mg/kg, IV Dose 1 mpk calculated as free form
  AUC(0-t): 656 ng·h/mL
[2]; [7]
  bioavailability: 17.2%
  AUC(0-t): 1120 ng·h/mL
[2]; male, SD, rat, plasma, po, 10 mg/kg, PO Dose 10 mpk calculated as free form, read-out: Cmax
  Cmax: 235 ng/mL
[2]; male, SD, rat, plasma, po, 10 mg/kg, PO Dose 10 mpk calculated as free form, read-out: tmax
  tmax: 2 h

## Cc1cc(-c2c[nH]c3ncc(-c4cc(C)c5c(c4)CCN(C)C5)nc23)ccc1C(=O)N(C)C [freeform Type A, 4-[2-(2,8-dimethyl-1,2,3,4-tetrahydroisoquinolin-6-yl)-5H-pyrrolo[2,3-b]pyrazin-7-yl]-N,N,2-trimethylbenzamide]
[3]; 40° C./75% RH/open 2 weeks, 60° C./sealed 10 days, RT/92.5% RH/open 10 days, 25° C./60% RH/open 8 weeks, UV 3 days
  HPLC area purity change: less than 0.4 area %
[3]; Vis (10000 Lux) for 5 days
  HPLC area purity decrease: ~1.2 area %
[3]; under the laboratory conditions
  Form change (physical stability): No form change
[4]
  Form change in process solvent: No form change

## Cc1cc(-c2c[nH]c3ncc(-c4cc(C)c5c(c4)CCN(C)C5)nc23)ccc1C(=O)N(C)C [Compound A citrate type A, 4-[2-(2,8-dimethyl-1,2,3,4-tetrahydroisoquinolin-6-yl)-5H-pyrrolo[2,3-b]pyrazin-7-yl]-N,N,2-trimethylbenzamide]
[1]; [6]
  AUC0-24h: 2990 ng·h/mL
  Cmax: 640 ng/mL
  F %: 86.9%
  t1/2: 7.95 h
  tmax: 1.50 h
[2]; [6]
  AUC0-24h: 1603 ng·h/mL
  Cmax: 445 ng/mL
  F %: 24.4%
  tmax: 2.67 h
[3]; 3-month experiment
  Long-term stability: excellent long-term stability
[3]
  Chemical and physical stability: chemically and physically stable
[5]
  Form change after the DVS test: No form change
[5]; listed as citrate salt type A
  Hygroscopicity: slightly hygroscopic
[5]; from 0% RH to 95% RH at 25° C.
  Water absorbed (DVS): about 0.7%

## Cc1cc(-c2c[nH]c3ncc(-c4cc(C)c5c(c4)CCN(C)C5)nc23)ccc1C(=O)N(C)C [Citrate Type B, 4-[2-(2,8-dimethyl-1,2,3,4-tetrahydroisoquinolin-6-yl)-5H-pyrrolo[2,3-b]pyrazin-7-yl]-N,N,2-trimethylbenzamide]
[3]; ambient and open conditions (about 25° C. and about 80% RH) over 1 week
  Form conversion on storage: converted to Type A

## Cc1cc(-c2c[nH]c3ncc(-c4cc(C)c5c(c4)CCN(C)C5)nc23)ccc1C(=O)N(C)C [L-malate salt Type A, 4-[2-(2,8-dimethyl-1,2,3,4-tetrahydroisoquinolin-6-yl)-5H-pyrrolo[2,3-b]pyrazin-7-yl]-N,N,2-trimethylbenzamide]
[3]
  Chemical and physical stability: chemically and physically stable
[5]
  Form change after the DVS test: No form change
[5]; listed as L-malate salt Pattern A
  Hygroscopicity: hygroscopic
[5]; from 40% RH to 95% RH at 25° C.
  Water absorbed (DVS): about 7.9%
